Results reported in US20080175794A1, “Substituted Pyridazinyl- and Pyrimidinyl-Quinolin-4-Ylamine Analogues” (NEUROGEN CORPORATION, priority 2005, published 2008).

Biological target: T1, human capsaicin receptor (Homo sapiens, UniProt Q8NER1)
T1 construct: expressed in transfected cells
Assay: Calcium mobilization assay, determination of antagonist activity (Example 6)
Assay type: cell-based
Conditions: assay provided in Example 6, cells expressing human capsaicin receptor, capsaicin at EC50
Experimental: A cDNA encoding full length human capsaicin receptor (SEQ ID NO:1, 2 or 3 of U.S. Pat. No. 6,482,611) is subcloned in the plasmid pBK-CMV (Stratagene, La Jolla, Calif.) for recombinant expression in mammalian cells.
Human embryonic kidney (HEK293) cells are transfected with the pBK-CMV expression construct encoding the full length human capsaicin receptor using standard methods. The transfected cells are selected over two weeks in media containing G418 (400 μg/ml) to obtain a pool of stably transfected cells. Independent clones are isolated from this pool by limiting dilution to obtain clonal stable cell lines for use in subsequent experiments.
Cells transfected with expression plasmids (as described in Example 4) and thereby expressing human capsaicin receptor are seeded and grown to 70-90% confluency in FALCON black-walled, clear-bottomed 96-well plates (#3904, BECTON-DICKINSON, Franklin Lakes, N.J.). The culture medium is emptied from the 96 well plates and FLUO-3 AM calcium sensitive dye (Molecular Probes, Eugene, Oreg.) is added to each well (dye solution: 1 mg FLUO-3 AM, 440 μL DMSO and 440 μl 20% pluronic acid in DMSO, diluted 1:250 in Krebs-Ringer HEPES (KRH) buffer (25 mM HEPES, […], 0.96 mM NaH2PO4, 1 mM MgSO4, 2 mM CaCl2, 5 mM glucose, 1 mM probenecid, pH 7.4), 50 μl diluted solution per well). Plates are covered with aluminum foil and incubated at 37° C. for 1-2 hours in an environment containing 5% CO2. After the incubation, the dye is emptied from the plates, and the cells are washed once with KRH buffer, and resuspended in KRH buffer.
To measure the ability of a test compound to agonize or antagonize a calcium mobilization response in cells expressing capsaicin receptors to capsaicin or other vanilloid agonist, the EC50 of the agonist capsaicin is first determined. An additional 20 μl of KRH buffer and 1 μl DMSO is added to each well of cells, prepared as described above. 100 μl capsaicin in KRH buffer is automatically transferred by the FLIPR instrument to each well. Capsaicin-induced calcium mobilization is monitored using either FLUOROSKAN ASCENT (Labsystems; Franklin, Mass.) or FLIPR (fluorometric imaging plate reader system; Molecular Devices, Sunnyvale, Calif.) instruments. Data obtained between 30 and 60 seconds after agonist application are used to generate an 8-point concentration response curve, with final capsaicin concentrations of 1 nM to 3 μM. KALEIDAGRAPH software (Synergy Software, Reading, Pa.) is used to fit the data to the equation: […]
Test compounds are dissolved in DMSO, diluted in 20 μl KRH buffer so that the final concentration of test compounds in the assay well is between […] and 5 μM, and added to cells prepared as described above. The 96 well plates containing prepared cells and test compounds are incubated in the dark at room temperature for 0.5 to 6 hours. It is important that the incubation not continue beyond 6 hours. Just prior to determining the fluorescence response, 100 μl capsaicin in KRH buffer at twice the EC50 concentration determined as described above is automatically added by the FLIPR instrument to each well of the 96 well plate for a final sample volume of 200 μl and a final capsaicin concentration equal to the EC50. The final concentration of test compounds in the assay wells is between 1 μM and 5 μM. […] The concentration of antagonist required to provide a 50% decrease, relative to the response observed in the presence of capsaicin and without antagonist, is the IC50 for the antagonist, and is preferably below 1 micromolar, 100 nanomolar, 10 nanomolar or 1 nanomolar.

T1 sequence (Q8NER1 whole entry): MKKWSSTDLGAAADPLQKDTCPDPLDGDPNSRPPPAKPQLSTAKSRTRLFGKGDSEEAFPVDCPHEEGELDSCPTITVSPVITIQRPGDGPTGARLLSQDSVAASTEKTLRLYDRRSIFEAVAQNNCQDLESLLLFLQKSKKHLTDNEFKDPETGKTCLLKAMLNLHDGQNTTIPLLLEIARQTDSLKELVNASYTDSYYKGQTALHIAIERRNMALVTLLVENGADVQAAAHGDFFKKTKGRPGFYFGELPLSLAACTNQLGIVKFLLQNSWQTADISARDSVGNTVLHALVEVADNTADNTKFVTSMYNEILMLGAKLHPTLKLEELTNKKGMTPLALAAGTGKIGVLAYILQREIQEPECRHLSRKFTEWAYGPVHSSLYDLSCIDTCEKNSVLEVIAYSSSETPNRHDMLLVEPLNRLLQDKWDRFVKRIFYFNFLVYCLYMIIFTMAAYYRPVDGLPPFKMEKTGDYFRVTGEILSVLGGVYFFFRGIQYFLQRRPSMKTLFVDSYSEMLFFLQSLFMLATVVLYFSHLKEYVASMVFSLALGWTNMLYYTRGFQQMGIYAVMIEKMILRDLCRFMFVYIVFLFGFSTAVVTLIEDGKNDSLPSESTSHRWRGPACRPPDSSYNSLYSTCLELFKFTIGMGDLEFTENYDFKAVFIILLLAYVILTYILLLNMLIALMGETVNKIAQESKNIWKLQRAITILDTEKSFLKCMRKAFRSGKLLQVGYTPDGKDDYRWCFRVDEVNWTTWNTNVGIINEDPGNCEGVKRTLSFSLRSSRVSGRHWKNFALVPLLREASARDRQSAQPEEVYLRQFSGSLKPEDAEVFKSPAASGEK

Row | Structure (SMILES) | IC50 (Table III) [nM] | IC50 [nM]
1 | CCN(c1cc(C(F)(F)F)c(-c2cnc3c(Nc4ccc(C(F)(F)F)cn4)ccnc3n2)nn1)C(C)C [Compound 128, 3-{6-[ethyl(isopropyl)amino]-4-(trifluoromethyl)pyridazin-3-yl}-N-[5-(trifluoromethyl)pyridin-2-yl]pyrido[2,3-b]pyrazin-8-amine] | < 1000 | 
2 | CN(C)CCNc1cc(C(F)(F)F)c(-c2cnc3c(Nc4ccc(C(F)(F)F)cn4)ccnc3n2)nn1 [Compound 69, N,N-dimethyl-N′-[5-(trifluoromethyl)-6-(8-{[5-(trifluoromethyl)pyridin-2-yl]amino}pyrido[2,3-b]pyrazin-3-yl)pyridazin-3-yl]ethane-1,2-diamine] | < 1000 | 
3 | CN(CC#N)c1cc(C(F)(F)F)c(-c2cnc3c(Nc4ccc(C(F)(F)F)cn4)ccnc3n2)nn1 [Compound 124, {methyl[5-(trifluoromethyl)-6-(8-{[5-(trifluoromethyl)pyridin-2-yl]amino}pyrido-[2,3-b]pyrazin-3-yl)pyridazin-3-yl]amino}acetonitrile] | < 1000 | 
4 | COCC(C)Nc1cc(C(F)(F)F)c(-c2cnc3c(Nc4ccc(C(F)(F)F)cn4)ccnc3n2)nn1 (centres unmarked) [Compound 165, 3-{6-[(2-methoxy-1-methylethyl)amino]-4-(trifluoromethyl)pyridazin-3-yl}-N-[5-(trifluoromethyl)pyridin-2-yl]pyrido[2,3-b]pyrazin-8-amine] | < 1000 | 
5 | CN(C)CCCOc1cc(C(F)(F)F)c(-c2cnc3c(Nc4ccc(C(F)(F)F)cn4)ccnc3n2)nn1 [Compound 64, 3-{6-[3-(dimethylamino)propoxy]-4-(trifluoromethyl)pyridazin-3-yl}-N-[5-(trifluoromethyl)pyridin-2-yl]pyrido[2,3-b]pyrazin-8-amine] | < 1000 | 
6 | CN(C)CCCNc1cc(C(F)(F)F)c(-c2cnc3c(Nc4ccc(C(F)(F)F)cn4)ccnc3n2)nn1 [Compound 139, N,N-dimethyl-N′-[5-(trifluoromethyl)-6-(8-{[5-(trifluoromethyl)pyridin-2-yl]amino}pyrido[2,3-b]pyrazin-3-yl)pyridazin-3-yl]propane-1,3-diamine] | < 1000 | 
7 | O[C@H]1CCN(c2cc(C(F)(F)F)c(-c3cnc4c(Nc5ccc(C(F)(F)F)cn5)ccnc4n3)nn2)C1 [Compound 193] | < 1000 | 
8 | FC(F)(F)c1ccc(Nc2ccnc3nc(-c4nnc(N5CCOCC5)cc4C(F)(F)F)cnc23)nc1 [Compound 53, 3-[6-morpholin-4-yl-4-(trifluoromethyl)pyridazin-3-yl]-N-[5-(trifluoromethyl)pyridin-2-yl]pyrido[2,3-b]pyrazin-8-amine] | < 1000 | 
9 | CC(C)Nc1cc(C(F)(F)F)c(-c2cnc3c(Nc4ccc(C(F)(F)F)cn4)ccnc3n2)nn1 [Compound 157, 3-[6-(isopropylamino)-4-(trifluoromethyl)pyridazin-3-yl]-N-[5-(trifluoromethyl)pyridin-2-yl]pyrido[2,3-b]pyrazin-8-amine] | < 1000 | 
10 | CCC(COC)Nc1cc(C(F)(F)F)c(-c2cnc3c(Nc4ccc(C(F)(F)F)cn4)ccnc3n2)nn1 (centres unmarked) [Compound 166, 3-[6-{[1-(methoxymethyl)propyl]amino}-4-(trifluoromethyl)pyridazin-3-yl]-N-[5-(trifluoromethyl)pyridin-2-yl]pyrido[2,3-b]pyrazin-8-amine] | < 1000 | 
11 | CN(C)C(=O)CNc1cc(C(F)(F)F)c(-c2cnc3c(Nc4ccc(C(F)(F)F)cn4)ccnc3n2)nn1 [Compound 167, N,N-dimethyl-N2-[5-(trifluoromethyl)-6-(8-{[5-(trifluoromethyl)pyridin-2-yl]amino}pyrido[2,3-b]pyrazin-3-yl)pyridazin-3-yl]glycinamide] | < 1000 | 
12 | FC(F)(F)c1ccc(Nc2ccnc3nc(-c4ncncc4C(F)(F)F)ccc23)nc1 [Compound 5, N-[5-(Trifluoromethyl)pyridin-2-yl]-7-[5-(trifluoromethyl)pyrimidin-4-yl]-1,8-naphthyridin-4-amine] |  | < 1000
13 | CC1CCCN1c1cc(C(F)(F)F)c(-c2cnc3c(Nc4ccc(C(F)(F)F)cn4)ccnc3n2)nn1 (centres unmarked) [Compound 129, 3-[6-(2-methylpyrrolidin-1-yl)-4-(trifluoromethyl)pyridazin-3-yl]-N-[5-(trifluoromethyl)pyridin-2-yl]pyrido[2,3-b]pyrazin-8-amine] | < 1000 | 
14 | CN(C)CCOc1cc(C(F)(F)F)c(-c2cnc3c(Nc4ccc(C(F)(F)F)cn4)ccnc3n2)nn1 [Compound 62, 3-{6-[2-(dimethylamino)ethoxy]-4-(trifluoromethyl)pyridazin-3-yl}-N-[5-(trifluoromethyl)pyridin-2-yl]pyrido[2,3-b]pyrazin-8-amine] | < 1000 | 
15 | CN1CCN(CCCNc2cc(C(F)(F)F)c(-c3cnc4c(Nc5ccc(C(F)(F)F)cn5)ccnc4n3)nn2)CC1 [Compound 81, 3-[6-{[3-(4-methylpiperazin-1-yl)propyl]amino}-4-(trifluoromethyl)pyridazin-3-yl]-N-[5-(trifluoromethyl)pyridin-2-yl]pyrido[2,3-b]pyrazin-8-amine] | < 1000 | 
16 | CCC(O)CNc1cc(C(F)(F)F)c(-c2cnc3c(Nc4ccc(C(F)(F)F)cn4)ccnc3n2)nn1 (centres unmarked) [Compound 173, 1-{[5-(trifluoromethyl)-6-(8{[5-(trifluoromethyl)pyridin-2-yl]amino}pyrido[2,3-b]pyrazin-3-yl)pyridazin-3-yl]amino}butan-2-ol] | < 1000 | 
17 | CN(C)c1cc(C(F)(F)F)c(-c2cnc3c(Nc4ccc(C(F)(F)F)cn4)ccnc3n2)nn1 [Compound 54, 3-[6-(dimethylamino)-4-(trifluoromethyl)pyridazin-3-yl]-N-[5-(trifluoromethyl)pyridin-2-yl]pyrido[2,3-b]pyrazin-8-amine] | < 1000 | 
18 | FC(F)(F)c1ccc(Nc2ccnc3nc(-c4nnccc4C(F)(F)F)cnc23)nc1 [Compound 2, N-[5-(Trifluoromethyl)pyridin-2-yl]-3-[4-(trifluoromethyl)pyridazin-3-yl]pyrido[2,3-b]pyrazin-8-amine] |  | < 1000
19 | CCN1CCCC1CNc1cc(C(F)(F)F)c(-c2cnc3c(Nc4ccc(C(F)(F)F)cn4)ccnc3n2)nn1 (centres unmarked) [Compound 76, 3-[6-{[(1-ethylpyrrolidin-2-yl)methyl]amino}-4-(trifluoromethyl)pyridazin-3-yl]-N-[5-(trifluoromethyl)pyridin-2-yl]pyrido[2,3-b]pyrazin-8-amine] | < 1000 | 
20 | FC(F)(F)c1cnc(Nc2ccnc3nc(-c4nnccc4C(F)(F)F)cnc23)cn1 [Compound 46, N-[5-(trifluoromethyl)-2-pyrazinyl]-3-[4-(trifluoromethyl)-3-pyridazinyl]pyrido[2,3-b]pyrazin-8-amine] | < 1000 | 
21 | CC(C)C(C)Nc1cc(C(F)(F)F)c(-c2cnc3c(Nc4ccc(C(F)(F)F)cn4)ccnc3n2)nn1 (centres unmarked) [Compound 111, 3-{6-[(1,2-dimethylpropyl)amino]-4-(trifluoromethyl)pyridazin-3-yl}-N-[5-(trifluoromethyl)pyridin-2-yl]pyrido[2,3-b]pyrazin-8-amine] | < 1000 | 
22 | COc1nc(Nc2ccnc3nc(-c4nnccc4C(F)(F)F)cnc23)ccc1C(F)(F)F [Compound 49, N-[6-methoxy-5-(trifluoromethyl)pyridin-2-yl]-3-[4-(trifluoromethyl)pyridazin-3-yl]pyrido[2,3-b]pyrazin-8-amine] | < 1000 | 
23 | OC1CCCN(c2cc(C(F)(F)F)c(-c3cnc4c(Nc5ccc(C(F)(F)F)cn5)ccnc4n3)nn2)C1 (centres unmarked) [Compound 195, 1-[5-(trifluoromethyl)-6-(8-{[5-(trifluoromethyl)pyridin-2-yl]amino}pyrido[2,3-b]pyrazin-3-yl)pyridazin-3-yl]piperidin-3-ol] | < 1000 | 
